Source: PubChem BioAssay (NCI)
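Protocol summary: plate cells (96-well), add compound at 5 concentrations, incubate 48 h, interpolate endpoints linearly. TGI: total growth inhibition.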

Tests used:
Experiment in all cases: DTP human tumour cell line panel, 48 h
[1] = test system: MDA-MB-435
[2] = test system: NCI-H522 lung
[3] = test system: UACC-257 melanoma
[4] = test system: SF-539 CNS
[5] = test system: OVCAR-5 ovarian
[6] = test system: OVCAR-3 ovarian
[7] = test system: MCF7 breast
[8] = test system: SF-268 CNS
[9] = test system: DU-145 prostate
[10] = test system: COLO 205 colon
[11] = test system: UACC-62 melanoma
[12] = test system: PC-3 prostate
[13] = test system: BT-549 breast
[14] = test system: M14 melanoma
[15] = test system: MOLT-4 leukemia
[16] = test system: A549 NSCLC
[17] = test system: CAKI-1 renal
[18] = test system: TK-10 renal
[19] = test system: A498 renal

| Structure (SMILES) | TGI [1] | TGI [2] | TGI [3] | TGI [4] | TGI [5] | TGI [6] | TGI [7] | TGI [8] | TGI [9] | TGI [10] | TGI [11] | TGI [12] | TGI [13] | TGI [14] | TGI [15] | TGI [16] | TGI [17] | TGI [18] | TGI [19] |
| --- | --- | --- | --- | --- | --- | --- | --- | --- | --- | --- | --- | --- | --- | --- | --- | --- | --- | --- | --- |
| O=c1[nH]c2nc3ccccc3c(=O)n2/c1=C/c1ccccc1 | 59 µM | > 100 µM | > 100 µM | 44.9 µM | > 100 µM | > 100 µM | > 100 µM | > 100 µM | > 100 µM | > 100 µM | > 100 µM | > 100 µM | 53.8 µM | > 100 µM | > 100 µM | > 100 µM | > 100 µM | > 100 µM | – |
| O=S(Cc1ccccc1)c1ccccc1Cn1cccc1 (stereo not drawn) | > 100 µM | – | > 100 µM | > 100 µM | > 100 µM | > 100 µM | > 100 µM | > 100 µM | > 100 µM | > 100 µM | > 100 µM | > 100 µM | > 100 µM | > 100 µM | – | > 100 µM | > 100 µM | > 100 µM | – |
| O=C(C[C@@H]1CCCN2CCCC[C@H]12)N1c2ccccc2Sc2ccc(Cl)cc21 | 29.3 µM | 26.9 µM | 25.6 µM | 32.1 µM | 26.4 µM | 31.9 µM | 35.5 µM | 42.8 µM | 28.2 µM | 26.1 µM | – | 27.2 µM | 28 µM | 17.9 µM | 30 µM | 30.9 µM | 27.6 µM | 35.5 µM | – |
| CCN(CC)CCCNc1ccc([N+](=O)[O-])c2nc3ccccc3c(N)c12 | 2.9 µM | – | > 10 µM | 1.88 µM | 3.43 µM | 8.75 µM | 2.24 µM | > 10 µM | > 10 µM | – | > 10 µM | 2.25 µM | 3.32 µM | 2.43 µM | 4.29 µM | 2.11 µM | > 10 µM | > 10 µM | 9.95 µM |
| CC(=O)C1C(=O)C(=O)N(c2ccc([N+](=O)[O-])cc2[N+](=O)[O-])C1=O (stereo not drawn) | > 100 µM | > 100 µM | > 100 µM | > 100 µM | > 100 µM | > 100 µM | > 100 µM | > 100 µM | > 100 µM | > 100 µM | > 100 µM | > 100 µM | > 100 µM | > 100 µM | > 100 µM | > 100 µM | > 100 µM | > 100 µM | – |
| COc1ccc2c(=O)c3ccoc3[nH]c2c1 | > 100 µM | – | > 100 µM | > 100 µM | – | – | > 100 µM | > 100 µM | > 100 µM | > 100 µM | > 100 µM | > 100 µM | > 100 µM | > 100 µM | > 100 µM | – | > 100 µM | > 100 µM | > 100 µM |
| O=C1NC(=O)C(CCC(=O)c2cccc3ccccc23)C(=O)N1 | > 100 µM | – | > 100 µM | > 100 µM | > 100 µM | > 100 µM | > 100 µM | > 100 µM | > 100 µM | > 100 µM | > 100 µM | > 100 µM | > 100 µM | > 100 µM | > 100 µM | > 100 µM | > 100 µM | – | > 100 µM |
